Measured values taken from patent US10472612B2, “Cell culture system” (PRESIDENT AND FELLOWS OF HARVARD COLLEGE, priority 2011, dated 2019).

Key:
[1] = test system: Caco-2 cell monolayer; experiment: LGG co-culture on Caco-2 monolayer in static Transwell; format: cell-based, human; settings: first day of co-culture, not measurable after 48 hours
Method: Epithelial Barrier Measurements. The integrity of the human intestinal epithelial cell monolayer resulting from establishment of apical tight junctions was evaluated by staining for the tight junctional protein, occluidin,^29 using confocal immunofluorescence microscopy and by measuring trans-epithelial electrical resistance (TEER). In Transwell cultures, TEER was measured using a Millicell ERS meter (Millipore, Bedford, Mass.) coupled to a chopstick-like electrode, and TEER values (Ω cm^2) were determined by subtracting the baseline resistance value measured in the absence of cells and then multiplying the remaining ‘specific’ resistance value (Ω) times the cell culture surface area (cm^2). The TEER of the Caco-2 monolayer cultured in the Gut-on-a-Chip was measured using a voltage-ohm meter (87V Industrial Multimeter, Fluke Corporation, Everett, Wash.) coupled to Ag/AgCl electrode wires (0.008″ in diameter; A-M systems, Inc., Sequim, Wash.); control studies confirmed that similar TEER results were obtained with both methods. Again, the baseline resistance value measured in the absence of cells was subtracted from results obtained with the Caco-2 monolayer, and specific TEER values were determined by multiplying the specific resistance times the total cell culture surface area on the PDMS membrane (Table 1).
Microbial Studies. […]

[2] = test system: Caco-2 cell monolayer; format: cell-based; settings: flow 40 μL/hr, cyclic strain 10%, 0.15 Hz
Method: Epithelial Barrier Measurements. The integrity of the human intestinal epithelial cell monolayer resulting from establishment of apical tight junctions was evaluated by staining for the tight junctional protein, occluidin,^29 using confocal immunofluorescence microscopy and by measuring trans-epithelial electrical resistance (TEER). In Transwell cultures, TEER was measured using a Millicell ERS meter (Millipore, Bedford, Mass.) coupled to a chopstick-like electrode, and TEER values (Ω cm^2) were determined by subtracting the baseline resistance value measured in the absence of cells and then multiplying the remaining ‘specific’ resistance value (Ω) times the cell culture surface area (cm^2). […] Again, the baseline resistance value measured in the absence of cells was subtracted from results obtained with the Caco-2 monolayer, and specific TEER values were determined by multiplying the specific resistance times the total cell culture surface area on the PDMS membrane (Table 1).

[3] = test system: Caco-2 cell monolayer alone or with HMVE cell monolayer; experiment: Molecular permeability through cell monolayer in gut-on-a-chip with or without mechanical strain (Example 1); format: in vitro ADME, human; settings: Caco-2 monolayer alone or with HMVE monolayer; cyclic stretching 0.15 Hz, 30 μL/h
Method: In a fluidic condition (N=4), constant perfusion flow of 30 μL/h was conducted without any stretching motions (i.e. shear stresses only). […] In a static condition (N=4), transport experiment was performed in a Transwell system. Error bars indicate standard errors.
In a fluidic condition (N=2), constant perfusion flow at 30 μL/h was conducted without any stretching motions (i.e. shear stresses only). […] In a static condition (N=4), transport experiments were performed in the Transwell system. Error bars indicate standard errors.
In a fluidic condition (N=5), constant perfusion flow of 30 μL/h was conducted without any stretching motions (i.e. shear stresses only). […] In a static condition (N=3), transport experiment was performed in a Transwell system. Error bars indicate standard errors.
After the cell monolayers were fully confluent and stabilized under defined fluidic conditions, transport experiments were conducted. […] The co-cultured monolayers of Caco-2 and HMVE cells experienced with cyclic deformations for 12 hours or more prior to initiating the transport or barrier functional analysis experiments. […] Electrical resistances between the top and the bottom microchannels were monitored using an Ag/AgCl electrode equipped with an Ohm meter, and the resistance was converted into TEER value by multiplying values by the surface area of the cell monolayer. […]

Substance	TEER during co-culture [1]	barrier integrity (TEER) during co-culture [2]	effect of mechanical strain on paracellular transport [3]
Lactobacillus rhamnosus GG [LGG]	dissipated	improved	
Lucifer yellow			increased
